What all share (format): in vivo
The subject of test [1] is Solanum Nigrum L. (SOLNI). Description: Glasshouse herbicide efficacy of imazethapyrammonium with adjuvants, fresh weight after 14 days. To be noted: imazethapyrammonium 4.0 g ae/ha, adjuvant where named 0.25% w/v, plants in 2-3-leaf stage, untreated 15.42 g. How it is done: (§1) Test formulations are prepared by adjusting an aqueous solution of imazethapyrammonium to a concentration of 5 mmol. The adjuvants are added to this solution in an amount corresponding to a concentration of 0.25% w/v (2.5 g/l). These test solutions are applied in various concentrations (concentration stated g ae/ha, where ae means acidic equivalent) to the plant species Solanum Nigrum L. (SOLNI) and Lolium perenne L. (LOLPE) while they are in the 2-3-leaf stage in a glasshouse as shown in the following table.
(§2) After 14 days, the efficacy of the herbicidal formulation is assessed by weighing the plant parts still present (fresh weight).

For test [2], the system named is Lolium perenne L. (LOLPE). The description is as above. To be noted: imazethapyrammonium 4.0 g ae/ha, adjuvant where named 0.25% w/v, plants in 2-3-leaf stage, untreated 13.97 g. Here is the method: as §1, §2
The next test concerns Avena fatura L. (AVEFA). Description: Glasshouse herbicide efficacy of clodinafop propargyl (Topic 240) with adjuvants, fresh weight after 21 days. As to conditions: clodinafop propargyl 5 g a.i./ha (Topic 240 in water), adjuvant where named 0.25% w/v, plants in 2-3-leaf stage, untreated 17.48 g. How it is done: Test formulations are prepared by mixing the commercially available formulation Topic 240, which contains 240 g of clodinafop propargyl per liter of formulation, as stated by the manufacturer (Syngenta), with water. The adjuvants are added to this emulsion in an amount corresponding to a concentration of 0.25% w/v (2.5 g/l). These test solutions are applied in various concentrations (concentration stated in g a.i/ha, where a.i. means active ingredient) to the plant species Avena fatura L. (AVEFA) while they are in the 2-3-leaf stage in a glasshouse as shown in the following table.
After 21 days, the efficacy of the herbicidal formulation is assessed by weighing the plant parts which are still present (fresh weight).

As for `CCc1cnc(C2=NC(C)(C(C)C)C(=O)N2)c(C(=O)O)c1.N` (stereo not drawn) [Imazethapyrammonium, imazethapyrammonium], the “fresh weight [g] SOLNI” value in test [1] is reported as 10.61 g. Besides, the “fresh weight [g] LOLPE” value in test [2] was determined as 13.40 g.

For the molecule `C#CCOC(=O)[C@@H](C)Oc1ccc(Oc2ncc(Cl)cc2F)cc1` [Clodinafop propargyl, clodinafop propargyl], the “fresh weight [g] AVEFA” value in the test with Avena fatura L. (AVEFA) is 15.69 g.
